Assay results: the supplement of paper PMC4862054

How the values were obtained:
Test in all cases: normalised viability (% of control), CellTiter-Blue; higher = more viable cells (about 100 = DMSO control)
Conditions in all cases: incubation time: 72 h
[1] = test system: HCC1937
How it was run: (§1)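 After 72 h on compound-loaded 384-well plates, breast cancer cell lines received 2.5 µl CellTiter-Blue reagent for 2 h at 37 °C. Fluorescence at 560/590 nm was scaled per plate so that vehicle was 100 and a positive kill control was 0. The value stands for normalised viability at a single listed concentration of the series.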

[2] = test system: CAL-148
How it was run: as §1

[3] = test system: SK-BR-3
How it was run: as §1

[4] = test system: MDA-MB-453
How it was run: as §1

[5] = test system: MDA-MB-468
How it was run: as §1

[6] = test system: MDA-MB-436
How it was run: as §1

[7] = test system: CAL-51
How it was run: as §1

[8] = test system: MDA-MB-231
How it was run: as §1

[9] = test system: Hs578T
How it was run: as §1

[10] = test system: HCC1143
How it was run: as §1

[11] = test system: MFM-223
How it was run: as §1

[12] = test system: HCC1599
How it was run: as §1

[13] = test system: BT-474
How it was run: as §1

[14] = test system: HDQ-P1
How it was run: as §1

[15] = test system: DU-4475
How it was run: as §1

[16] = test system: BT-549
How it was run: as §1

[17] = test system: CAL-85-1
How it was run: as §1

CO[C@@H]1[C@H](N(C)C(=O)c2ccccc2)C[C@H]2O[C@]1(C)n1c3ccccc3c3c4c(c5c6ccccc6n2c5c31)C(=O)NC4 [Midostaurin]
normalised viability [%]
Conditions | 3 nM | 10 nM | 30 nM | 100 nM | 1000 nM | 10000 nM
[1] | – | 111 | – | – | 56.5 | 44.9
[2] | 115 | – | 105 | 129 | – | –
[3] | – | 94 | – | – | 77.4 | 39.5
[4] | 108 | – | 92.1 | 87.2 | – | –
[5] | – | 98.5 | – | – | 46.6 | 41.4
[6] | – | 94.2 | – | – | 62.7 | 57.2
[7] | 97.5 | – | 87.9 | 82.4 | – | –
[8] | – | 92.8 | – | – | 49.1 | 42.4
[9] | – | 129 | – | – | 31 | 15.6
[10] | – | 145 | – | – | 75 | 61.3
[11] | – | 96.3 | – | – | 74.4 | 64.2
[12] | – | 106 | – | – | 78.8 | 72.6
[13] | – | 105 | – | – | 91.3 | 84.3
[14] | 84.7 | – | 95.7 | 96.8 | – | –
[15] | 94.7 | – | 92.4 | 101 | – | –
[16] | – | 80.4 | – | – | 59.5 | 18.7
[17] | 112 | – | 111 | 103 | – | –

CO[C@@]12[C@H](COC(N)=O)C3=C(C(=O)C(C)=C(N)C3=O)N1C[C@@H]1N[C@@H]12 [Mitomycin C]
normalised viability [%]
Conditions | 3 nM | 10 nM | 30 nM | 100 nM | 1000 nM | 10000 nM
[1] | – | 88.4 | – | – | 45.4 | 21.6
[2] | 97.3 | – | 102 | 100 | – | –
[3] | – | 99.2 | – | – | 61.5 | 10.4
[4] | 124 | – | 94.5 | 91.4 | – | –
[5] | – | 95.3 | – | – | 78.5 | 8.5
[6] | – | 100 | – | – | 76.2 | 17.6
[7] | 119 | – | 118 | 107 | – | –
[8] | – | 108 | – | – | 76.1 | 47.3
[9] | – | 113 | – | – | 98.9 | 5.32
[10] | – | 78.3 | – | – | 72.4 | 20.4
[11] | – | 96.9 | – | – | 96.2 | 8.74
[12] | – | 110 | – | – | 73.2 | 14.6
[13] | – | 112 | – | – | 95.5 | 53.7
[14] | 105 | – | 96.3 | 104 | – | –
[15] | 105 | – | 83.6 | 91 | – | –
[16] | – | 85 | – | – | 84.9 | 14.1
[17] | 104 | – | 98.4 | 105 | – | –
